Patent publication US20220170930A1, “METHOD FOR SCREENING COMPOUND FOR TREATING OR PREVENTING POLYQ-RELATED NEURODEGENERATIVE DISEASES” (FUDAN UNIVERSITY, priority 2019, published 2022)

Tests used:
HTTexon1-Q72-MBP = target: T1, HTTexon1-Q72-MBP (Homo sapiens, UniProt P42858, INS38QQQQQQQQQQQQQQQQQQQQQQQQQQQQQQQQQQQQQQQQQQQQQQQQQQQ); test: OI-RD affinity screening and affinity reaction parameters with HTTexon1-Q72; type: binding
T1 construct: made in house; host or cells: mammalian expression vector pTT5SH8Q2
T1 sequence (P42858 with tags, fused parts or gaps, stated change not applied): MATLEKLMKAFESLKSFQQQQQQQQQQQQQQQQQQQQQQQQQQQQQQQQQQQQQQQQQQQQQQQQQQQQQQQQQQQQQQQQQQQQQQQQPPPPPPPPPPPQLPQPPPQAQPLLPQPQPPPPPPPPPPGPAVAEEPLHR
Experimental: Each compound was printed in duplicate on the microarray. The compound not fixed on the surface of the chip was washed away. The chip was sealed and cleaned. 01-RD microscope was applied to scan the images. […] The chips are cleaned and scanned.
(§1) The difference images of the above steps (1), (2), (3) (the image after incubation minus the image before incubation) was analyzed respectively.
(§2) Each compound was printed in triplicates on the microarray. 01-RD was used to measure the affinity reaction parameters of compounds with HTTexon1-Q72 and HTTexon1-Q25.

HTTexon1-Q25-MBP = target: T2, HTTexon1-Q25-MBP (Homo sapiens, UniProt P42858, DUP35-38); test: OI-RD affinity with HTTexon1-Q25; type: binding
T2 construct: made in house; host or cells: mammalian expression vector pTT5SH8Q2
T2 sequence (P42858 with tags, fused parts or gaps DUP35-38): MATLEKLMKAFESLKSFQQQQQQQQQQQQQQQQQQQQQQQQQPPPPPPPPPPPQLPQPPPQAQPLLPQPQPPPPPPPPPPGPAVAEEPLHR
Experimental: OI-RD images before and after incubation with the target protein was obtained following the method in (1).
as §1, §2

LC3B [1] = target: T3, LC3B (Homo sapiens, UniProt Q9GZQ8); test: OI-RD affinity with LC3B; type: binding
T3 construct: His8 (N, cleaved yes); GST (from pGEX-6P1) (N, cleaved yes); made in house; host or cells: E. coli BL21(DE3)pLsyS
Experimental: 01-RD images before and after incubation with the target protein was obtained following the method in (1).
as §1
(§3) Each compound was printed in triplicates on the microarray. 01-RD was used to measure the affinity reaction parameters of the compound with LC3B, full-length mHTT (flHTT-Q73) and full-length HTT-Q23 (flHTT-Q23).

[2] = target: T4, full-length mHTT (flHTT-Q73) (Homo sapiens, UniProt P42858, INS38QQQQQQQQQQQQQQQQQQQQQQQQQQQQQQQQQQQQQQQQQQQQQQQQQQQQ); test: OI-RD affinity reaction parameters with flHTT-Q73; type: binding
T4 construct: LC3B, full-length mHTT (flHTT-Q73) and full-length HTT-Q23 (flHTT-Q23); protein A (N, cleaved yes); made in house; host or cells: human embryonic kidney E293 cells
T4 sequence (P42858 with tags, fused parts or gaps with the stated changes): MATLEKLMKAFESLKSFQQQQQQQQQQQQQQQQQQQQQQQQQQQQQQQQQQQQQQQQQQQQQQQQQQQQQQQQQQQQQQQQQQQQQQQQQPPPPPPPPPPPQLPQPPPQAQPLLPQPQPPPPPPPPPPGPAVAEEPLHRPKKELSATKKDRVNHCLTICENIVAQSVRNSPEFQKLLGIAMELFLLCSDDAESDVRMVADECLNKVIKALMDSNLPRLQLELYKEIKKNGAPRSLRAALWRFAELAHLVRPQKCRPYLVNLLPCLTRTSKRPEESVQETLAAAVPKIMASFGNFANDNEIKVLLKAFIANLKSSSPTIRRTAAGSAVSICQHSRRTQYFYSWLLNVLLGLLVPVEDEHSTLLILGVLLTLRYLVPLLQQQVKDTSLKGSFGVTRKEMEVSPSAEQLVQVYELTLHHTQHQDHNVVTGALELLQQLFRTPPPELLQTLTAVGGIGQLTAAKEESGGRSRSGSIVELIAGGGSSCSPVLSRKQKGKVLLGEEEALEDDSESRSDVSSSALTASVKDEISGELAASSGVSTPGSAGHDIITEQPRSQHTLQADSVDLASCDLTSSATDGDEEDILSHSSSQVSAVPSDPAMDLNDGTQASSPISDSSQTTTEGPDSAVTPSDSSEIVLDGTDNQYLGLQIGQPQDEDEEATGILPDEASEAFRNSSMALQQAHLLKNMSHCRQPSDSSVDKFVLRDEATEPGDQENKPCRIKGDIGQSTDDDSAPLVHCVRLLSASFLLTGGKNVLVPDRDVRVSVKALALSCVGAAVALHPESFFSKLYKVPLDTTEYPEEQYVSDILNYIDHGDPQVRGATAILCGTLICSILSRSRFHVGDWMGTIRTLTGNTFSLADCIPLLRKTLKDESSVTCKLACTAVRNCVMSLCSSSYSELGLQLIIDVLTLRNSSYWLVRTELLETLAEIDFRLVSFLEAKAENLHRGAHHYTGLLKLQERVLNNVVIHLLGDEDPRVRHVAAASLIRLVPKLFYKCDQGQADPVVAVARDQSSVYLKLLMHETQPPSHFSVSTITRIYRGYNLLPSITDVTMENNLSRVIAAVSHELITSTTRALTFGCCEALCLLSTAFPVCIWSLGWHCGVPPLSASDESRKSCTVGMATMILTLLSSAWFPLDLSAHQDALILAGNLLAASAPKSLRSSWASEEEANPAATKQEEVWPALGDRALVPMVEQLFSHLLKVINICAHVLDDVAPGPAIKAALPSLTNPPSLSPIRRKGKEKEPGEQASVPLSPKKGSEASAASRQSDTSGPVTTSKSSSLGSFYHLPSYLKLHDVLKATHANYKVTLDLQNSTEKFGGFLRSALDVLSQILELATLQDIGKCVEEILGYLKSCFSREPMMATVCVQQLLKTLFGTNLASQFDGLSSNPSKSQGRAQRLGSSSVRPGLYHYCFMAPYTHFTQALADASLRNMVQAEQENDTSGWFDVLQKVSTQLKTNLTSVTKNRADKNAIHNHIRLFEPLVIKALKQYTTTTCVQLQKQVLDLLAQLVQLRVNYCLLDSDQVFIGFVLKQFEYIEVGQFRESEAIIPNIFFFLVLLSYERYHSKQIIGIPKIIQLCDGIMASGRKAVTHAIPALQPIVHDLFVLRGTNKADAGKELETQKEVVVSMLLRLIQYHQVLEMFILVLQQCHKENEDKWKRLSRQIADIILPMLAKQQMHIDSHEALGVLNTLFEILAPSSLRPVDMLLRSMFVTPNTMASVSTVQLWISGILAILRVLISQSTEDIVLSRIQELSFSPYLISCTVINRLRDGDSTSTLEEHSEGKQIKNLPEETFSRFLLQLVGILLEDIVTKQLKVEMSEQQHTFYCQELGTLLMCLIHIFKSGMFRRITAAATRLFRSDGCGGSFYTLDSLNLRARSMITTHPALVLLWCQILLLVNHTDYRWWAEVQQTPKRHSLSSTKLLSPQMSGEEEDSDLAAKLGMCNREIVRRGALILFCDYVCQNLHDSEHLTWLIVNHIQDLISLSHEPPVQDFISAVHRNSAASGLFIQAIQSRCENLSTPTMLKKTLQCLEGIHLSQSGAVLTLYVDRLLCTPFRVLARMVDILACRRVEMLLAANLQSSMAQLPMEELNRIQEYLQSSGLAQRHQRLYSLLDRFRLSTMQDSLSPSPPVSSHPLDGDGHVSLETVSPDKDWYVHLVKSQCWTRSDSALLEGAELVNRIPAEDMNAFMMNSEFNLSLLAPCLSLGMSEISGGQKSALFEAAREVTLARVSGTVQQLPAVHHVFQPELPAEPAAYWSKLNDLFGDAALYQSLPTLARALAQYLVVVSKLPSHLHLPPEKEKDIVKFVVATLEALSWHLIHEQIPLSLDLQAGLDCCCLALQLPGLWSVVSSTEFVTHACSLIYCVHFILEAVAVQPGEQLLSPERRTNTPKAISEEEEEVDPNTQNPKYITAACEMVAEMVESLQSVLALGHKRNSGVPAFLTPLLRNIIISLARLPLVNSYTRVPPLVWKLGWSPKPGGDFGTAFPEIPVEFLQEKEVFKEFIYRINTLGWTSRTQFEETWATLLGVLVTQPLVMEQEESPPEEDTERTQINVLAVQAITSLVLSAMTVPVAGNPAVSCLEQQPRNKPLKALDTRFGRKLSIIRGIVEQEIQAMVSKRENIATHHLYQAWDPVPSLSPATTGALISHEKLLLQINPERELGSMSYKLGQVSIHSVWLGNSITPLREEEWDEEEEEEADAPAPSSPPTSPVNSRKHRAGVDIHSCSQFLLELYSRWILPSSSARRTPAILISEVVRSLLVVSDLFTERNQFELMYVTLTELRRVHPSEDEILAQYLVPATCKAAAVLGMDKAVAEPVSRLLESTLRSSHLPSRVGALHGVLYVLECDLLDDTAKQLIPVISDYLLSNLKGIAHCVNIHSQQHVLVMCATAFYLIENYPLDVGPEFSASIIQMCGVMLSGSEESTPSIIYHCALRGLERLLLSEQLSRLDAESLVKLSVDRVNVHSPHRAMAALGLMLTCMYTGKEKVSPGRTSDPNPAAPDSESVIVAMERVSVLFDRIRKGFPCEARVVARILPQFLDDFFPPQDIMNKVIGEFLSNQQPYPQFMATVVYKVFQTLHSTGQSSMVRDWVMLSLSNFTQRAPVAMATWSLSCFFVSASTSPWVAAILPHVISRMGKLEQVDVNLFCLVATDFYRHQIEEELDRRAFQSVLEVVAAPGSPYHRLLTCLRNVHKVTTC
From the text: as §3

flHTT-Q73 = target: T5, flHTT-Q73 (Homo sapiens, UniProt P42858, INS38QQQQQQQQQQQQQQQQQQQQQQQQQQQQQQQQQQQQQQQQQQQQQQQQQQQQ); test: MST affinity with flHTT-Q73; type: binding
T5 construct: LC3B, full-length mHTT (flHTT-Q73) and full-length HTT-Q23 (flHTT-Q23); protein A (N, cleaved yes); made in house; host or cells: human embryonic kidney E293 cells
T5 sequence (P42858 with tags, fused parts or gaps with the stated changes): as the sequence (P42858 with tags, fused parts or gaps with the stated changes) above

LC3B [3] = target: T3, LC3B; test: MST affinity with LC3B; type: binding
mHTT [4] = test: Western-blot mHTT level in primary cultured cortical neurons; type: cell-based, mouse; settings: 2 days
Experimental: (§4) Primary cultured cortical neurons: The brains of Hdh^Q140/Q7 and Hdh^Q7/Q7 newborn mice (P0) were dissected, digested, dissociated, and cultured.
(§5) (1) The primary cultured Hdh^Q140/Q7 and Hdh^Q7/Q7 mouse cortical neuron cells were treated with the compound for 2 days.

wtHTT = target: T6, wtHTT (Mus musculus, UniProt P42859); test: Western-blot wtHTT level in primary cultured cortical neurons; type: cell-based; settings: Hdh^Q7/Q7 cortical neurons, 2 days
T6 construct: endogenous in cells; host or cells: primary cortical neurons of newborn Hdh Q140/Q7 and Hdh Q7/Q7 mice
Experimental: as §4, §5

mHTT [5] = target: T7, mHTT (Homo sapiens, UniProt P42858, INS38QQQQQQQQQQQQQQQQQQQQQQQQQQ); test: HTRF mHTT level in HD patient iPSC-derived neurons; type: cell-based; settings: iPSC-derived neurons (Q47)
T7 construct: endogenous in cells; host or cells: HD patient iPSC-derived neurons (Q47)

[6] = target: T8, mutant ATXN3 protein (ATXN3-Q74) (Homo sapiens, UniProt P54252, G306R/INS305QQQQQQQQQQQQQQQQQQQQQQQQQQQQQQQQQQQQQQQQQQQQQQQQQQQQQQQQQQQQQQQQ/V212M); test: Western-blot mutant ATXN3 level in SCA3 patient fibroblasts; type: cell-based; settings: 100 nM (compound 4: 50 nM), 2 days
T8 construct: endogenous in cells; host or cells: SCA3 patient fibroblasts (Q74)
T8 sequence (P54252 with tags, fused parts or gaps isoform P54252-1 with the stated changes): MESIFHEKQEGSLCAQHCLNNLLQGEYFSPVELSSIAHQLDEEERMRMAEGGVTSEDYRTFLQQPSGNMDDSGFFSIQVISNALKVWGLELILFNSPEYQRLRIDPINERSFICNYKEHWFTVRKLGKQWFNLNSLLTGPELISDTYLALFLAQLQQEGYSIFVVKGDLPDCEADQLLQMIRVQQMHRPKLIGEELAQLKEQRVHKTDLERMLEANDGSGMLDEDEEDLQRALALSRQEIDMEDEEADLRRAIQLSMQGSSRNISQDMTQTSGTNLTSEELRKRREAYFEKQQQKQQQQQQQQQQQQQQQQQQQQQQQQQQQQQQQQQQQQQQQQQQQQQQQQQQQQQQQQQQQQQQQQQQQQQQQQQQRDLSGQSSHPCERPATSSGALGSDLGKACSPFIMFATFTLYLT
Experimental: (§6) Then the levels of mutant ATXN3 protein (ATXN3-Q74, SEQ ID NO: 2) and wild-type ATXN3 protein (ATXN3-Q27, SEQ ID NO: 7) were determined by Western-blots (FIG. 26). […] Therefore, the compound of the present invention can be used to treat SCA3.

[7] = target: T9, wild-type ATXN3 protein (ATXN3-Q27) (Homo sapiens, UniProt P54252, G306R/INS305QQQQQQQQQQQQQQQQQ/V212M); test: Western-blot wild-type ATXN3 level in fibroblasts; type: cell-based; settings: 100 nM (compound 4: 50 nM), 2 days
T9 construct: endogenous in cells; host or cells: wild-type fibroblasts (Q27) and/or the normal allele in SCA3 patient fibroblasts
T9 sequence (P54252 with tags, fused parts or gaps isoform P54252-1 with the stated changes): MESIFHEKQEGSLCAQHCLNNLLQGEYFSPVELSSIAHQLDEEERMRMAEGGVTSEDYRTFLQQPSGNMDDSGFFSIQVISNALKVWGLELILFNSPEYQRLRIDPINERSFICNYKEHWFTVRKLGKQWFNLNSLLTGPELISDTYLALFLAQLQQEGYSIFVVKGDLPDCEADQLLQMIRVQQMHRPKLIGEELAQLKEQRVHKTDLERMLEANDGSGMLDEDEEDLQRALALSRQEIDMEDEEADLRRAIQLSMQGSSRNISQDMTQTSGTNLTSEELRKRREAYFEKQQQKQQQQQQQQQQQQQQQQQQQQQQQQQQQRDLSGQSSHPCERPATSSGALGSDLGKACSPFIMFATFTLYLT
Experimental: as §6

His-ATXN1-Q92 = target: T10, His-ATXN1-Q92 (Homo sapiens, UniProt P54253, INS208QQQQQQQQQQQQQQQQQQQQQQQQQQQQQQQQQQQQQQQQQQQQQQQQQQQQQQQQQQQQQQQQQQQQQQQQQQQQQQQQ); test: OI-RD affinity screening with His-ATXN1-Q92; type: binding; settings: OI-RD difference images
T10 construct: made in house; host or cells: HEK293T cells (ATCC, CRL-3216)
Experimental: (1) PolyQ-ATXN1 cDNA (where polyQ is Q92) was synthesized de novo and subcloned into pcDNA vector. It transfected into HEK293T cells (ATCC, CRL-3216) to obtain cells expressing His-ATXN1-Q92 (SEQ ID NO: 3 with a His tag at the N-terminal).
(2) The His-ATXN1-Q92 expressed in (1) was purified to obtain ATXN1 with abnormally expanded polyQ.
To identify compound(s) that can bind to ATXN1 with abnormally expanded polyQ, screening was conducted using a method similar to step (1) of 1.1, except for that the target protein HTTexon1-Q72-MBP in step (1) of 1.1 was replaced with His-ATXN1-Q92.

[8] = target: T11, mutant ATXN1 protein (His-ATXN1-Q92) (Homo sapiens, UniProt P54253, INS208QQQQQQQQQQQQQQQQQQQQQQQQQQQQQQQQQQQQQQQQQQQQQQQQQQQQQQQQQQQQQQQQQQQQQQQQQQQQQQQQ); test: HTRF mutant ATXN1 level in His-ATXN1-Q92-expressing cells; type: cell-based; settings: 100 nM, 2 days, anti-His-Tb/MW1-D2
T11 construct: expressed in transfected cells; host or cells: HEK293T cells (ATCC, CRL-3216)

mHTT [9] = test: Intracerebroventricular injection, mHTT and wtHTT in cortices of HD mice; type: in vivo, mouse; settings: mouse, in vivo
Experimental: Experimental animals: Hdh^Q140/Q7 mice (3 months old), 4 in each group.
Each test includes three repetitions for each sample, and the mean values was calculated (FIG. 16).

Q25-GFP [10] = test: OI-RD affinity screening with Q25-GFP; type: binding; settings: OI-RD difference images
From the text: (1) PolyQ-GFP cDNA sequence (expressing Met-polyQ-GFP, wherein polyQ was Q72 or Q25) was synthesized de novo and subcloned into pcDNA vector. […] And the same method was used to obtain cells expressing Q53-GFP, cells expressing Q46-GFP, and cells expressing Q38-GFP.

GFP = test: OI-RD affinity screening with GFP; type: binding; settings: OI-RD difference images
Experimental: (§7) To identify compound(s) that can selectively bind to proteins containing expanded polyglutamine, screening was conducted using a method similar to 1.1, except for that the target protein HTTexon1-Q72-MBP in step (1) of 1.1 was replaced with the polyQ-GFP protein prepared in 10.1, and the target protein HTTexon1-Q25-MBP in step (2) of 1.1 was replaced with GFP.

[11] = system: proteins with expanded polyglutamine (polyQ-GFP); test: OI-RD affinity screening with polyQ-GFP proteins; type: binding; settings: OI-RD difference images
Experimental: as §7

[12] = system: polyQ-GFP (Q72-GFP, Q25-GFP); test: polyQ-GFP level in HEK293T cells by Incucyte fluorescence counting; type: cell-based; settings: Q72-GFP vs Q25-GFP expressing HEK293T cells, 100 nM compound 1, 100 nM compound 3 or 50 nM compound 4, 2 days
From the text: (1) PolyQ-GFP cDNA sequence (expressing Met-polyQ-GFP, wherein polyQ was Q72 or Q25) was synthesized de novo and subcloned into pcDNA vector. It was transfected into HEK293T cells (ATCC, CRL-3216) through forward transfection to obtain Q72-GFP expressing cells and Q25-GFP expressing cells, respectively. And the same method was used to obtain cells expressing Q53-GFP, cells expressing Q46-GFP, and cells expressing Q38-GFP.
The Q72-GFP expressing cells and Q25-GFP expressing cells obtained in step (1) of 10.1 were used. […] Then the level of polyQ-GFP was measured by Incucyte fluorescence counting (FIG. 25).

MBP-ATXN3-Q28 [13] = target: T12, MBP-ATXN3-Q28 (Homo sapiens, UniProt P54252, INS305QQQQQQQQQQQQQQQQQQ); test: OI-RD affinity screening with MBP-ATXN3-Q28; type: binding; settings: OI-RD difference images
T12 construct: His8 with TEV protease cleavage site; made in house; host or cells: Escherichia coli Rosetta(DE3)pLsyS
T12 sequence (P54252 with tags, fused parts or gaps isoform P54252-4 with the stated changes): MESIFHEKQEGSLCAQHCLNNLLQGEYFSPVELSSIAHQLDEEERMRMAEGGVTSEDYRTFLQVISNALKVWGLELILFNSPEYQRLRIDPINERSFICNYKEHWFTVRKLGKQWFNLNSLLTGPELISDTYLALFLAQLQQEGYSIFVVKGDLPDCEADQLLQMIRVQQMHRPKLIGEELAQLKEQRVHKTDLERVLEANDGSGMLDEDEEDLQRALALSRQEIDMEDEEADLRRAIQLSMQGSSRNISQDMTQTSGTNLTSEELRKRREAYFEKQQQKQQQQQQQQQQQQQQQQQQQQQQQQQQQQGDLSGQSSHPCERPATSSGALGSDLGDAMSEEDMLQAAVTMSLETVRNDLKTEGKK
Experimental: (§8) Screening was conducted using a method similar to 1.1, except for that the target protein HTTexon1-Q72-MBP in step (1) of 1.1 was replaced with MBP-ATXN3-Q68 and the target protein HTTexon1-Q25-MBP in step (2) of 1.1 was replaced with MBP-ATXN3-Q28, to obtain compounds that can selectively bind to ATXN3 with abnormally expanded polyQ (MBP-ATXN3-Q68).

MBP-ATXN3-Q28 [14] = target: T12, MBP-ATXN3-Q28; test: MST affinity with MBP-ATXN3-Q28; type: binding
Experimental: Protein concentration was 500 nM.

Q25-GFP [15] = test: MST affinity with Q25-GFP
Experimental: (§9) The affinity of the compound with full-length HTT and LC3B was verified with micro thermophoresis (MST) using Monolith NT.115 instrument from NanoTemper Technologies. The reaction buffer was 20 mM HEPES, pH 7.4, 150 mM NaCl.

MBP-ATXN3-Q68 [16] = target: T13, MBP-ATXN3-Q68 (Homo sapiens, UniProt P54252, INS305QQQQQQQQQQQQQQQQQQQQQQQQQQQQQQQQQQQQQQQQQQQQQQQQQQQQQQQQQQ); test: MST affinity with MBP-ATXN3-Q68
T13 sequence (P54252 with tags, fused parts or gaps isoform P54252-4 with the stated changes): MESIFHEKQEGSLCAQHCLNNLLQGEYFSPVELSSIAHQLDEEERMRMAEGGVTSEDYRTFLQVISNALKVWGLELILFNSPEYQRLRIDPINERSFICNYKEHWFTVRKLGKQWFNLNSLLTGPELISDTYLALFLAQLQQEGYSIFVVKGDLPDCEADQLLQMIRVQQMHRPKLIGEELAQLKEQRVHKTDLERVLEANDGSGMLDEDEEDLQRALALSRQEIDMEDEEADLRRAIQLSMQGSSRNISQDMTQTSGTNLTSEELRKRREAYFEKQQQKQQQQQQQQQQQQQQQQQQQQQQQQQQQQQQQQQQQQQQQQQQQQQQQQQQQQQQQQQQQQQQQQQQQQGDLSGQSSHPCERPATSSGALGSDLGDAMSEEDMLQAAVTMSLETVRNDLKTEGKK
Experimental: as §9

MBP-ATXN3-Q68 [17] = target: T13, MBP-ATXN3-Q68; test: OI-RD affinity screening with MBP-ATXN3-Q68; type: binding; set-up: His8 with TEV protease cleavage site; made in house; host or cells: Escherichia coli Rosetta(DE3)pLsyS; settings: OI-RD difference images
Experimental: as §8

## Cc1ccc(C(=O)N(CCCN)[C@@H](c2nc3cc(Cl)ccc3c(=O)n2Cc2ccccc2)C(C)C)cc1 [compound 2, ispinesib]
HTTexon1-Q72-MBP
  Kd: 29.2 nM
HTTexon1-Q72-MBP; OI-RD difference images
  binding to HTTexon1-Q72: can bind
HTTexon1-Q72-MBP; OI-RD, HTTexon1-Q72
  Koff: 0.000104 s⁻¹
  Kon: 0.000213 min/nM
HTTexon1-Q25-MBP
  binding to HTTexon1-Q25: do not bind
LC3B [1]
  Kd: 238 nM
LC3B [1]; OI-RD difference images
  binding to LC3B: can bind
LC3B [1]; OI-RD, LC3B
  Koff: 9.77e-05 s⁻¹
  Kon: 2.46e-05 min/nM
[2]
  Kd: 322 nM
[2]; OI-RD, flHTT-Q73
  Koff: 0.000345 s⁻¹
  Kon: 6.43e-05 min/nM
flHTT-Q73
  Kd: 130 nM
LC3B [3]
  Kd: 3100 nM
mHTT [4]
  concentration range in which the effect of selectively reducing mHTT levels was observed: 30 to 100 nM
  preferred concentration for selectively reducing mHTT levels: 100 nM
wtHTT
  wtHTT levels: did not reduce wtHTT levels
mHTT [5]; 2B7/MW1
  mHTT levels: Decreased mHTT levels were observed
mHTT [5]; presence of the autophagy inhibitor NH4Cl
  mHTT levels: this effect was not observed
[6]
  mutant ATXN3 protein level: A decrease in mutant ATXN3 protein level was observed
[7]
  wild-type ATXN3 protein level: no decrease in wild-type ATXN3 protein level was observed
His-ATXN1-Q92
  binding to His-ATXN1-Q92: can bind
[8]
  level of mutant ATXN1 protein (His-ATXN1-Q92): Decreased levels of mutant ATXN1 were observed

## O=C1Nc2ccc(Br)cc2/C1=C/c1cc(O)c(O)c(Br)c1 [compound 3]
mHTT [9]
  mHTT level in cortices: significantly reduced mHTT level
Q25-GFP [10]
  binding to Q25-GFP: did not bind
GFP
  binding to GFP: did not bind
[11]
  binding affinity to proteins with 38 or more glutamine repeats: showed certain binding affinity
[12]
  level of proteins containing expanded polyglutamine in cells (polyQ-GFP): can selectively reduce the level
MBP-ATXN3-Q28 [13]
  binding to MBP-ATXN3-Q28: did not bind
MBP-ATXN3-Q28 [14]
  binding affinity with normal ATXN3 protein (MBP-ATXN3-Q28): no binding affinity
[6]
  mutant ATXN3 protein level: A decrease in mutant ATXN3 protein level was observed
[7]
  wild-type ATXN3 protein level: no decrease in wild-type ATXN3 protein level was observed
His-ATXN1-Q92
  binding to His-ATXN1-Q92: can bind
[8]
  level of mutant ATXN1 protein (His-ATXN1-Q92): Decreased levels of mutant ATXN1 were observed
Q25-GFP [15]
  binding affinity to Q25-GFP: no binding affinity
MBP-ATXN3-Q68 [16]
  Kd: 1020 nM
MBP-ATXN3-Q68 [17]
  binding to MBP-ATXN3-Q68: binded
